Read-outs that look alike come from different tables or passages of the source. Non-standard residues stand in square brackets, D forms with d. Residues, ends and D or L forms follow the SMILES beside them. Dmt = Cc1cc(O)cc(C)c1C[C@H](N)C(=O)O; βAla = NCCC(=O)O
What was measured:
[1] = target: 125I-IDAPP binding sites in C57/Bl6 brain homogenates (Mus musculus, UniProt P42866)
mKOR-1 = mKOR-1 (Mus musculus, UniProt P33534); assay: Competition binding versus 125I-IBNtxA in mKOR-CHO membranes
mDOR-1 = mDOR-1 (Mus musculus, UniProt P32300); assay: Competition binding versus 125I-IBNtxA in mDOR-CHO membranes
mMOR-1 = mMOR-1 (Mus musculus, UniProt P42866); assay: Competition binding versus 125I-IBNtxA in mMOR-CHO membranes
6TM/E11 = 6TM/E11 (Mus musculus, UniProt P42866); assay: Competition binding versus 125I-IBNtxA at the 6TM-containing
MOR-1 = MOR-1 (Mus musculus, UniProt P42866); assay: Competition of 3H-DAMGO binding in CHO cells expressing MOR-1
[2] = target: 3H-DAMGO binding sites in C57 brain tissue (Mus musculus, UniProt P42866)
[3] = system: C57Bl/6 wild type (WT) and exon 11 KO (E11 KO) mice; details: cited from earlier work
MOR-1 variants (Oprm1) = details: mouse, in vivo; cited from earlier work

## Oc1ccc2c3c1O[C@H]1c4[nH]c5c(c4C[C@@]4(O)[C@@H](C2)N(CC2CC2)CC[C@]314)C[C@@]1(O)[C@H]2Cc3ccc(O)c4c3[C@@]1(CCN2CC1CC1)[C@H]5O4 [NorBNI]
[1]; 0.1 nM 125I-IDAPP, C57/Bl6 brain homogenates, no blockers
  Ki: > 1000 nM

## C[C@@H](NC(=O)[C@@H](N)Cc1ccc(O)cc1)C(=O)N[C@@H](Cc1ccccc1)C(=O)N[C@@H](Cc1ccccc1)C(N)=O [TAPP, Tyr-D-Ala-Phe-Phe-NH2] (H-Y[dA]FF-NH2)
mKOR-1
  Ki: > 500 nM
mDOR-1
  Ki: 3 ± 0.1 nM
mMOR-1
  Ki: 3 ± 0.2 nM
6TM/E11
  Ki: 130 ± 16 nM

## C[C@@H](NC(=O)[C@@H](N)Cc1ccc(O)cc1)C(=O)N[C@@H](Cc1ccccc1)C(=O)NCCC(N)=O [TAPA, Tyr-D-Ala-Phe-βAla-NH2] (H-Y[dA]F[βAla]-NH2)
mKOR-1
  Ki: > 500 nM
mDOR-1
  Ki: 48 ± 1 nM
mMOR-1
  Ki: 11 ± 0.3 nM
6TM/E11
  Ki: 40 ± 7 nM

## C[C@@H](O)[C@H](NC(=O)[C@H]1NC(=O)[C@H]([C@@H](C)O)NC(=O)[C@H](CCCN=C(N)N)NC(=O)[C@@H](Cc2c[nH]c3ccccc23)NC(=O)[C@H](Cc2ccc(O)cc2)NC(=O)[C@@H](NC(=O)[C@H](N)Cc2ccccc2)CSSC1(C)C)C(N)=O [CTAP, D-Phe-Cys-Tyr-D-Trp-Arg-Thr-Pen-Thr-NH2]
MOR-1
  IC50: 4.8 ± 0.4 nM
[1]
  Ki: 1.1 ± 0.3 nM
[2]
  IC50: 4.1 ± 0.2 nM

## CC[C@H](C)[C@H](NC(=O)[C@H](Cc1ccccc1)NC(=O)[C@H](Cc1ccccc1)NC(=O)[C@@H](C)NC(=O)[C@@H](N)Cc1c(C)cc(O)cc1C)C(N)=O [DAPPI, Dmt-D-Ala-Phe-Phe-Ile-NH2] (H-[Dmt][dA]FFI-NH2)
mKOR-1
  Ki: 7 ± 0.4 nM
mDOR-1
  Ki: 0.3 ± 0.2 nM
mMOR-1
  Ki: 0.3 ± 0.1 nM

## CN1CC[C@]23c4c5ccc(O)c4O[C@H]2[C@@H](O)C=C[C@H]3[C@H]1C5 [Morphine]
[3]
  analgesic activity in E11 KO mice: maintaining full analgesic activity

## Cc1cccc([C@H](C)c2cnc[nH]2)c1C [Dexmedetomidine]
MOR-1 variants (Oprm1)
  MOR-1 Variants required for analgesia: 6TM

## C[C@@H](NC(=O)[C@@H](N)Cc1ccc(O)cc1)C(=O)N[C@@H](Cc1ccccc1)C(=O)NCC(=O)N[C@@H](Cc1ccc(O)cc1)C(=O)N1CCC[C@H]1C(=O)N[C@@H](CO)C(N)=O [Dermorphin, Tyr-D-Ala-Phe-Gly-Tyr-Pro-Ser-NH2]
mMOR-1
  Ki: 4 ± 0.5 nM
6TM/E11
  Ki: > 500 nM

## C=CCN1C[C@H](C)N([C@H](c2ccc(C(=O)N(CC)CC)cc2)c2cccc(OC)c2)C[C@H]1C [SNC80]
[1]
  Ki: > 1000 nM
MOR-1 variants (Oprm1)
  MOR-1 Variants required for analgesia: 7TM + 6TM

## CC[C@H](C)[C@H](NC(=O)[C@H](Cc1ccccc1)NC(=O)[C@H](Cc1ccccc1)NC(=O)[C@@H](C)NC(=O)[C@@H](N)Cc1ccc(O)cc1)C(N)=O [TAPPI, Tyr-D-Ala-Phe-Phe-Ile-NH2] (H-Y[dA]FFI-NH2)
mDOR-1
  Ki: 6 ± 0.1 nM
mMOR-1
  Ki: 0.2 ± 0.2 nM
6TM/E11
  Ki: 100 ± 10 nM

## CN1CC[C@]23c4c5ccc(O)c4O[C@H]2[C@@H](O[C@@H]2O[C@H](C(=O)O)[C@@H](O)[C@H](O)[C@H]2O)C=C[C@H]3[C@H]1C5 [M6G]
[1]
  Hill Slope: −0.6 ± 0.1
  Ki: 0.7 ± 0.3 nM
